From BindingDB's records for doi:10.7270/Q2ZP450S (Catholic University of Daegu, 2017) come the findings set out here.

Usually IC50 stands for the concentration that inhibits the measured activity by half. By Ki is commonly meant the dissociation constant of the complex between target and ligand, obtained from inhibition or displacement. Low readings indicate higher affinity, high ones lower affinity.

The experiment addresses T1, Tyrosine-protein phosphatase non-receptor type 1 (Homo sapiens, UniProt P18031).
T1 sequence (P18031 whole entry): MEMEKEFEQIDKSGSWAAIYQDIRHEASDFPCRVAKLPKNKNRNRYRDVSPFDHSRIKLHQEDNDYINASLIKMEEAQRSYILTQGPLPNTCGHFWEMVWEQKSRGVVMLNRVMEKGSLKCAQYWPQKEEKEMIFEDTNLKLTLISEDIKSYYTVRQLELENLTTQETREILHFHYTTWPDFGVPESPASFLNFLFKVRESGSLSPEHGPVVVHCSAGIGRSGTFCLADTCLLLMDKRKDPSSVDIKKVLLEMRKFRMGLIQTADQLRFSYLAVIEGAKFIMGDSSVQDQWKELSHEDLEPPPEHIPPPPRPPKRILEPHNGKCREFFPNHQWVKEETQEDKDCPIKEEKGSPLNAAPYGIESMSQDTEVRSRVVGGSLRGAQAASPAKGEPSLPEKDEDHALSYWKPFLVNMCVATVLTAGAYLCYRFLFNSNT
Put plainly: PTP1B Assay. The following applies: pH 6; 37 °C. As for the experimental part:
In each 96-well plates (total 200 μL of volume), there were 2 mM p-NPP and PTP1B (0.05-0.1 μg) in a buffer containing 50 mM citrate (pH 6.0), 0.1 M NaCl, 1 mM EDTA, and 1 mM dithiothreitol (DTT) with or without test compound, following by pre-incubated at 37 °C for 10 min, and then implemented with 50 μL of p-NPP. The reaction was finally added with 10 M NaOH.
Regarding `O=C1C=CC(=C(c2ccc(O)cc2)c2c(-c3ccc(O)cc3O)ccc(CO)c2C#Cc2ccc(O)cc2)C=C1` [PTP1B spring 5 (5)], inhibition was half-maximal at 15.9 µM (IC50) and the affinity, expressed as Ki, was 13.9 µM.
Compound `O=C1C=CC(=C(c2ccc(O)cc2)c2c(C#Cc3ccc(O)cc3)cccc2-c2ccc(O)cc2)C=C1` [Selaginellin T (1)] yielded an IC50 of 58 µM.
The compound `Cc1ccc(-c2ccc(O)cc2)c(C(=C2C=CC(=O)C=C2)c2ccc(O)cc2)c1C#Cc1ccc(O)cc1` [Selaginellin U (2)] yielded a 50% inhibitory concentration (IC50) of 13.8 µM and a Ki of 9.7 µM.
The matching figures for `COc1ccc(-c2ccc(O)cc2)c(C(c2ccc(O)cc2)c2ccc(O)cc2)c1C#Cc1ccc(O)cc1` [PTP1B spring 7 (7)]: 4.8 µM and 3 µM.
In the same order, the values of `O=C1C=CC(=C(c2ccc(O)cc2)c2c(C#Cc3ccc(O)cc3)cccc2-c2ccc(O)cc2O)C=C1` [Selaginellin W (4)] are 14.6 µM and 11.1 µM.
The matching figures for `COc1cc(C#Cc2c(CO)ccc(-c3ccc(O)cc3)c2C(=C2C=CC(=O)C=C2)c2ccc(O)cc2)ccc1O` [Selaginellin V (3)]: 14.5 µM and 11.3 µM.
